Measurements: patent US20190290623A1, “USE OF TIOTROPIUM BROMIDE TO PREVENT PULMONARY OXYGEN TOXICITY” (priority 2018, published 2019)

Test system: swine exposed to 2.5 ATA hyperbaric oxygen for 5.5 hr
Assay: Experiment 2: lung wet-dry ratio
Format: in vivo
Details: 2.5 ATA O2 5.5 hr; n=13; mean ± SEM; p=0.4566 vs saline
Excerpt: Lungs were collected from the swine during necropsy. The right lung was collected for measurement of wet-dry ratios. The left lung was fixed via tracheal instillation at a standard pressure of 25 cmH2O with 10% neutral buffered formalin (NBF). The lungs were then sectioned into ten, one centimeter (cm) cranial to caudal serial sections. Three, 1 cm blocks were cut from each section and post-fixed in 10% NBF, trimmed, embedded in paraffin and cut into 5 μm sections for histological staining. Histology slides were de-paraffinized and stained with hematoxylin and eosin. A board-certified veterinary pathologist blinded to group randomization reviewed all gross necropsies, images, and histology slides.
All data were compiled into Excel spreadsheets then imported into Graphpad Prism 7.02 for statistical analysis. […] To allow for accurate data comparison between animals and/or groups the pressure volume curves were separated into inspiratory arms (0 to 40 cm H2O) and expiratory arms (40 to −40 cm H2O). Each arm was then fit using a non-linear regression utilizing a Gaussian distribution model. Volume data was then extrapolated from the curve corresponding to pressures from 0 to 40 cmH2O at 2.5 cm H2O increments. Statistical group-wise comparison of the extrapolated inspiratory and expiratory arms were conducted using repeated measures two-way ANOVA. […]

**Q.** `C[N+]1(C)[C@@H]2C[C@@H](OC(=O)C(O)(c3cccs3)c3cccs3)C[C@H]1[C@@H]1O[C@@H]12` [Tiotropium, tiotropium bromide] was tested. Which “Wet-Dry ratios of lung” value did it give?
**A.** Its value is 6.067±0.2305.
